# Test system: MDA-MB-231 human breast cancer cells
# Assay: Cell proliferation assay (CellTiter-Glo, 72 hours treatment)
# Assay type: cell-based
# Conditions: Homo sapiens; MDA-MB-231 cells, 72 hours at 37° C., CellTiter-Glo; read-out: MDA-MB-231 cell proliferation assay (IC50)
# Procedure, shortened: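 IC50 categories: under 100 nM +++, 100–1000 nM ++, above 1000 nM +, derived by sigmoidal curve fitting of CellTiter-Glo luminescence. Cells plated at 2,500 per well, dosed the following day and exposed 72 h at 37 °C versus DMSO control.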
row,SMILES,IC50
1,"COc1nc(Cl)cc2c1[C@]1(O)[C@H](O)[C@H](CN3CCC(F)CC3)[C@@H](c3ccccc3)[C@]1(c1ccc(C#N)cc1)O2 (racemic) [156Fb, Rac-4-((5aR,6S,7S,8R,8aS)-3-chloro-7-((4-fluoropiperidin-1-yl)methyl)-8,8a-dihydroxy-1-methoxy-6-phenyl-6,7,8,8a-tetrahydro-5aH-cyclopenta[4,5]furo[3,2-c]pyridin-5a-yl)benzonitrile]",< 100 nM
2,"CN(C)C(=O)[C@H]1[C@@H](O)[C@@]2(O)c3ncc(Cl)cc3O[C@@]2(c2ccc(Cl)cc2)[C@@H]1c1ccccc1 (single isomer, unassigned) [11F]",100 to 1000 nM
3,"COc1cncc2c1[C@]1(O)[C@H](O)[C@H](C(=O)N3[C@@H]4CCC[C@H]3CC4)[C@@H](c3ccccc3)[C@]1(c1ccc(Br)cc1)O2 (racemic) [114F, Rac-((1R,5S)-8-azabicyclo[3.2.1]octan-8-yl)((4bS,5R,6R,7S,7aR)-7a-(4-bromophenyl)-4b,5-dihydroxy-4-methoxy-7-phenyl-4b,6,7,7a-tetrahydro-5H-cyclopenta[4,5]furo[2,3-c]pyridin-6-yl)methanone]",< 100 nM
4,"N#Cc1ccc([C@@]23Oc4cc(Cl)cnc4[C@]2(O)[C@H](CO)C[C@H]3c2ccccc2)cc1 (racemic) [168F, Rac-4-((5aR,6S,8S,8aR)-3-chloro-8a-hydroxy-8-(hydroxymethyl)-6-phenyl-6,7,8,8a-tetrahydro-5aH-cyclopenta[4,5]furo[3,2-b]pyridin-5a-yl)benzonitrile]",> 1000 nM
5,"N#Cc1ccc([C@@]23Oc4cc(Cl)cnc4[C@]2(O)[C@H](O)[C@H](S(=O)(=O)Cc2ccccc2)[C@H]3c2ccccc2)cc1 (racemic) [94F, Rac-4-((5aR,6S,7R,8S,8aS)-7-(benzylsulfonyl)-3-chloro-8,8a-dihydroxy-6-phenyl-6,7,8,8a-tetrahydro-5aH-cyclopenta[4,5]furo[3,2-b]pyridin-5a-yl)benzonitrile]",> 1000 nM
6,"O[C@]12c3ncc(Cl)cc3O[C@@]1(c1ccc(Br)cc1)[C@H](c1ccccc1)[C@H]1CO[C@H]12 (racemic) [60F, Rac-(2aS,3S,3aR,8bS,8cR)-3a-(4-bromophenyl)-6-chloro-3-phenyl-2a,3,3a,8c-tetrahydrooxeto[3″,2″:4′,5′]cyclopenta[1′,2′:4,5]furo[3,2-b]pyridin-8b(2H)-ol]",> 1000 nM
7,"COC(=O)[C@@H]1C(c2ccccc2)[C@]2(c3ccc(I)cc3)Oc3cncc(OC)c3[C@]2(O)[C@@H]1O (mixture of isomers) [193F, Rac-Methyl (4bS,5R,6R,7aR)-4b,5-dihydroxy-7a-(4-iodophenyl)-4-methoxy-7-phenyl-4b,6,7,7a-tetrahydro-5H-cyclopenta[4,5]furo[2,3-c]pyridine-6-carboxylate]",100 to 1000 nM
8,"N#Cc1ccc([C@@]23Oc4cc(Cl)cnc4[C@]2(O)[C@H](O)[C@H](S(=O)(=O)N2CCCC2)[C@H]3c2ccccc2)cc1 (single isomer, unassigned) [83F]",< 100 nM
9,"CN(C)C[C@H]1[C@@H](O)[C@@]2(O)c3ncc(Cl)cc3O[C@@]2(c2ccc(C#N)cc2)[C@@H]1c1ccccc1 (racemic) [40Fb, rac-4-((5aR,6S,7S,8R,8aS)-3-chloro-7-((dimethylamino)methyl)-8,8a-dihydroxy-6-phenyl-6,7,8,8a-tetrahydro-5aH-cyclopenta[4,5]furo[3,2-b]pyridin-5a-yl)benzonitrile]",100 to 1000 nM
10,"COc1cncc2c1[C@]1(O)[C@H](O)[C@H](S(C)(=O)=O)[C@@H](c3ccccc3)[C@]1(c1ccc(C#N)cc1)O2 (single isomer, unassigned) [102F]",100 to 1000 nM
11,"COc1cncc2c1[C@]1(O)[C@H](O)[C@H](CN)[C@@H](c3ccccc3)[C@]1(c1ccc(C#N)cc1)O2 (racemic) [65F, Rac-4-((4bS,5R,6S,7S,7aR)-6-(aminomethyl)-4b,5-dihydroxy-4-methoxy-7-phenyl-5,6,7,7a-tetrahydro-4bH-cyclopenta[4,5]furo[2,3-c]pyridin-7a-yl)benzonitrile]",100 to 1000 nM
12,"COc1cncc2c1[C@]1(O)[C@H](O)[C@H](CNCc3ccnn3C)[C@@H](c3ccccc3)[C@]1(c1ccc(C#N)cc1)O2 (racemic) [242F, Rac-4-((4bS,5R,6S,7S,7aR)-4b,5-dihydroxy-4-methoxy-6-((((1-methyl-1H-pyrazol-5-yl)methyl)amino)methyl)-7-phenyl-4b,5,6,7-tetrahydro-7aH-cyclopenta[4,5]furo[2,3-c]pyridin-7a-yl)benzonitrile]",100 to 1000 nM
13,"O[C@@]12C=C[C@@H](c3ccccc3)[C@]1(c1ccc(Br)cc1)Oc1cc(Cl)cnc12 (racemic) [133F, Rac-(5aR,6S,8aR)-5a-(4-bromophenyl)-3-chloro-6-phenyl-5a,6-dihydro-8aH-cyclopenta[4,5]furo[3,2-b]pyridin-8a-ol]",> 1000 nM
14,"COc1nc(Cl)cc2c1[C@]1(O)[C@@H](CN3CCOCC3)[C@H](CO)[C@@H](c3ccccc3)[C@]1(c1ccc(Br)cc1)O2 (racemic) [199F, Rac-(5aR,6S,7R,8R,8aR)-5a-(4-bromophenyl)-3-chloro-7-(hydroxymethyl)-1-methoxy-8-(morpholinomethyl)-6-phenyl-5a,6,7,8-tetrahydro-8aH-cyclopenta[4,5]furo[3,2-c]pyridin-8a-ol]",< 100 nM
15,"CN(C)C(=O)[C@@H]1[C@@H](c2ccccc2)[C@]2(c3ccc(C#N)cc3)Oc3cc(Cl)cnc3[C@]2(O)[C@]1(C)O (racemic) [33Fa, Rac-(5aR,6S,7R,8R,8aS)-3-chloro-5a-(4-cyanophenyl)-8,8a-dihydroxy-N,N,8-trimethyl-6-phenyl-5a,7,8,8a-tetrahydro-6H-cyclopenta[4,5]furo[3,2-b]pyridine-7-carboxamide]",100 to 1000 nM
16,"COc1cncc2c1[C@]1(O)[C@H](O)[C@H](C(=O)NCC(C)(C)O)[C@@H](c3ccccc3)[C@]1(c1ccc(Br)cc1)O2 (racemic) [253F, Rac-(4bS,5R,6R,7S,7aR)-7a-(4-bromophenyl)-4b,5-dihydroxy-N-(2-hydroxy-2-methylpropyl)-4-methoxy-7-phenyl-4b,6,7,7a-tetrahydro-5H-cyclopenta[4,5]furo[2,3-c]pyridine-6-carboxamide]",< 100 nM
17,"OC[C@@H]1C[C@@H](c2ccccc2)[C@]2(c3ccc(Br)cc3)Oc3cc(Cl)cnc3[C@]12O (racemic) [166F, rac-(5aR,6S,8S,8aR)-5a-(4-bromophenyl)-3-chloro-8-(hydroxymethyl)-6-phenyl-5a,6,7,8-tetrahydro-8aH-cyclopenta[4,5]furo[3,2-b]pyridin-8a-ol]",100 to 1000 nM
18,"CN(C)C(=O)[C@H]1[C@@H](O)[C@@]2(O)c3ncc(Cl)cc3O[C@@]2(c2ccc(F)cc2)[C@@H]1c1ccccc1 (single isomer, unassigned) [10F]",> 1000 nM
19,"COc1cncc2c1[C@]1(O)[C@H](O)[C@H](C(=O)N(C)Cc3cccnc3)[C@@H](c3ccccc3)[C@]1(c1ccc(Br)cc1)O2 (racemic) [277F, Rac-(4bS,5R,6R,7S,7aR)-7a-(4-bromophenyl)-4b,5-dihydroxy-4-methoxy-N-methyl-7-phenyl-N-(pyridin-3-ylmethyl)-4b,6,7,7a-tetrahydro-5H-cyclopenta[4,5]furo[2,3-c]pyridine-6-carboxamide]",< 100 nM
20,"COc1cncc2c1[C@]1(O)[C@H](O)[C@H](C(=O)N(C)C3CC3)[C@@H](c3ccccc3)[C@]1(c1ccc(Br)cc1)O2 (racemic) [245F, Rac-(4bS,5R,6R,7S,7aR)-7a-(4-bromophenyl)-N-cyclopropyl-4b,5-dihydroxy-4-methoxy-N-methyl-7-phenyl-4b,6,7,7a-tetrahydro-5H-cyclopenta[4,5]furo[2,3-c]pyridine-6-carboxamide]",100 to 1000 nM
21,"N#Cc1ccc([C@@]23Oc4cc(Cl)cnc4[C@]2(O)[C@H](O)[C@H](CN)[C@H]3c2ccccc2)cc1 (racemic) [30F, rac-4-((5aR,6S,7S,8R,8aS)-7-(aminomethyl)-3-chloro-8,8a-dihydroxy-6-phenyl-6,7,8,8a-tetrahydro-5aH-cyclopenta[4,5]furo[3,2-b]pyridin-5a-yl)benzonitrile]",100 to 1000 nM
22,"O[C@H]1C[C@@H](c2ccccc2)[C@]2(c3ccc(Br)cc3)Oc3cc(Cl)cnc3[C@]12O (racemic) [130F, Rac-(5aR,6S,8S,8aS)-5a-(4-bromophenyl)-3-chloro-6-phenyl-5a,6,7,8-tetrahydro-8aH-cyclopenta[4,5]furo[3,2-b]pyridine-8,8a-diol]",> 1000 nM
23,"COc1nc(Cl)cc2c1[C@]1(O)[C@H](O)[C@H](CN3CCC(F)(F)CC3)[C@@H](c3ccccc3)[C@]1(c1ccc(C#N)cc1)O2 (racemic) [157Fb, Rac-4-((5aR,6S,7S,8R,8aS)-3-chloro-7-((4,4-difluoropiperidin-1-yl)methyl)-8,8a-dihydroxy-1-methoxy-6-phenyl-6,7,8,8a-tetrahydro-5aH-cyclopenta[4,5]furo[3,2-c]pyridin-5a-yl)benzonitrile]",100 to 1000 nM
24,"COC(=O)C1(F)[C@@H](O)[C@@]2(O)c3ncc(Cl)cc3O[C@@]2(c2ccc(Br)cc2)[C@@H]1c1ccccc1 (mixture of isomers) [58F, Rac-methyl (5aR,6S,8S,8aS)-5a-(4-bromophenyl)-3-chloro-7-fluoro-8,8a-dihydroxy-6-phenyl-5a,7,8,8a-tetrahydro-6H-cyclopenta[4,5]furo[3,2-b]pyridine-7-carboxylate]",> 1000 nM
25,"COc1cncc2c1[C@]1(O)[C@H](O)C(CN3CCN(C)CC3)[C@@H](c3ccccc3)[C@]1(c1ccc(C(F)(F)F)cc1)O2 (single isomer, unassigned) [284F]",100 to 1000 nM
26,"CN(C)C(=O)[C@H]1[C@@H](O)[C@@]2(O)c3ncc(Cl)cc3O[C@@]2(c2ccc(C(F)(F)F)cc2)[C@@H]1c1ccccc1 (single isomer, unassigned) [8F]",100 to 1000 nM

# Same assay, conditions: MDA-MB-231 cells, 72 hours at 37° C., CellTiter-Glo; read-out: MDA-MB-231 cell proliferation assay (IC50)
row,SMILES,IC50
1,"COc1cncc2c1[C@]1(O)[C@H](O)[C@H](CN(C)C)[C@@H](c3ccccc3)[C@]1(c1ccc(C#N)cc1)O2 (single isomer, unassigned) [103F]",< 100 nM
